Data as given in patent US20210128561A1, “MRGX Receptor Antagonists” (Rheinische-Friedrich-Wilhelms-Universität Bonn, priority 2019, published 2021).

How the values were obtained:
human MrgX4 L83S = target: T1, human MrgX4 L83S (Homo sapiens, UniProt Q96LA9, L83S); test: β-arrestin assay (CHO β-arrestin human MrgX4 L83S); assay type: cell-based; conditions: for % inhibition ± SEM: test concentration not given
T1 construct: expressed in transfected cells; host or cells: CHO beta-arrestin cells

human wildtype MrgX2 = target: T2, human wildtype MrgX2 (Homo sapiens, UniProt Q96LB1); test: calcium assay (LN229 cells recombinantly expressing human wildtype MrgX2); assay type: cell-based; conditions: for % inhibition ± SEM: test concentration not given
T2 construct: expressed in transfected cells; host or cells: LN229 cells
T2 sequence (Q96LB1 1-330): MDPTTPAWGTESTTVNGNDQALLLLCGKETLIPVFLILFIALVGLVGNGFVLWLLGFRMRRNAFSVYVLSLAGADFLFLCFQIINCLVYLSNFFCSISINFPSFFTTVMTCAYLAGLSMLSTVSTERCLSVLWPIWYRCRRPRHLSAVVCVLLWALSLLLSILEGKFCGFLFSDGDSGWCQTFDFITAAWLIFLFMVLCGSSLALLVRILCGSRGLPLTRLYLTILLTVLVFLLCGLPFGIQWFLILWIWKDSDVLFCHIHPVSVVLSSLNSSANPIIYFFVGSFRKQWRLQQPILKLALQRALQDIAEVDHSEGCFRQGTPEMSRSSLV

T1 sequence (Q96LA9 whole entry L83S): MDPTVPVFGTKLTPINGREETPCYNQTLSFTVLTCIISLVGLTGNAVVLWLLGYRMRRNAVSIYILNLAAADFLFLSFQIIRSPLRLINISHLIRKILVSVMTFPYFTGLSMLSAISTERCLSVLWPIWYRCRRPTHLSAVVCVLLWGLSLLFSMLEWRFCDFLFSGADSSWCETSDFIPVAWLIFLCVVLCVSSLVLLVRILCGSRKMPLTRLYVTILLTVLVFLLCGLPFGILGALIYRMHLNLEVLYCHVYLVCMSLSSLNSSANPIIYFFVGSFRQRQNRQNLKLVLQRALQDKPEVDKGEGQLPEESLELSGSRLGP

Row | Compound | IC50 (human MrgX4 L83S) | % inhibition ± SEM (human MrgX4 L83S) | IC50 (human wildtype MrgX2) | % inhibition ± SEM (human wildtype MrgX2)
1 | CCCCc1c(C)[nH]c2nc3ccccc3n2c1=O [A-11] | > 100 µM | 37% |  | 
2 | Cc1[nH]c2nc3ccccc3n2c(=O)c1CCC(C)C [A-12] | > 10 µM | −25% |  | 
3 | CC(C)(C)c1cc(=O)n2c(nc3ccccc32)[nH]1 [A-18] | > 100 µM | 48% |  | 
4 | CCOC(=O)Cc1cc(=O)n2c(nc3ccccc32)[nH]1 [A-29] | > 100 µM | −33% |  | 
5 | Cc1cc(=O)n2c3ccccc3nc2n1Cc1ccc(Cl)cc1 [A-6] | > 10 µM | 14% |  | 
6 | O=C(O)Cc1cc(=O)n2c(nc3ccccc32)[nH]1 [A-27] | > 100 µM | −18% |  | 
7 | O=c1c2c([nH]c3nc4ccccc4n13)CCCC2 [B-55] | 5.66 ± 1.15 µM |  | > 100 µM | 20%
8 | N#CCCc1c(-c2ccccc2)[nH]c2nc3ccccc3n2c1=O [A-22] | > 100 µM | 2% |  | 
9 | CCCc1cc(=O)n2c(nc3ccccc32)[nH]1 [A-19] | 14.7 ± 1.3 µM |  | > 100 µM | 27%
10 | CCOC(=O)c1cnc2[nH]c3ccccc3n2c1=O [A-3] | > 100 µM | 25% |  | 
11 | Cc1[nH]c2nc3ccccc3n2c(=O)c1CCc1ccccc1 [A-14] | > 10 µM | 19% |  | 
12 | Cc1[nH]c2nc3ccccc3n2c(=O)c1C [A-8] | 11.6 ± 3.7 µM |  | 2.89 ± 0.24 µM | 
13 | CC(C)c1cc(=O)n2c(nc3ccccc32)[nH]1 [A-17] | 3.22 ± 0.82 µM |  | > 100 µM | 70%
14 | O=c1ccnc2[nH]c3ccccc3n12 [A-2] | > 100 µM | 18% |  | 
15 | COCc1cc(=O)n2c(nc3ccccc32)[nH]1 [A-26] | > 100 µM | −13% |  | 
16 | Cc1[nH]c2nc3ccccc3n2c(=O)c1Cc1ccccc1 [A-13] | > 100 µM | 24% |  | 
17 | Cc1cc(=O)n2c3ccccc3nc2n1CC#N [A-7] | > 100 µM | 43% |  | 
18 | CCCCc1c(O)[nH]c2nc3ccccc3n2c1=O [A-25] | > 100 µM | 22% |  | 
19 | CCCn1c(C)cc(=O)n2c3ccccc3nc12 [A-4] | > 100 µM | 35% |  | 
20 | Cc1cc(=O)n2cc[nH]c2n1 [A-1] | > 100 µM | 4% |  | 
21 | O=c1cc(-c2ccccc2)[nH]c2nc3ccccc3n12 [A-20] | > 100 µM | −2% |  | 
22 | Cc1cc(=O)n2c3ccccc3nc2n1Cc1ccccc1 [A-5] | > 10 µM | −5% |  | 
23 | COC(=O)Cc1cc(=O)n2c(nc3ccccc32)[nH]1 [A-28] | > 100 µM | 4% |  | 
24 | Cc1[nH]c2nc3ccccc3n2c(=O)c1CCC#N [A-16] | > 100 µM | 26% |  | 

More lines, now with the values ahead:

Row | IC50 (human MrgX4 L83S) | % inhibition ± SEM (human MrgX4 L83S) | IC50 (human wildtype MrgX2) | % inhibition ± SEM (human wildtype MrgX2) | Compound
25 | > 100 µM | 22% | > 100 µM | −2% | Cc1[nH]c2nc3ccccc3n2c(=O)c1CCO [B-34]
26 | 0.477 ± 0.087 µM |  | 0.00827 ± 0.00082 µM |  | CCc1c(C(C)C)[nH]c2nc3cc(Cl)c(Cl)cc3n2c1=O [B-41]
27 | 0.54 ± 0.076 µM |  | > 10 µM | 105% | CCc1c(-c2ccccc2)[nH]c2nc3ccccc3n2c1=O [C-79]
28 | > 10 µM | 40% |  |  | CCc1c(C(C)C)nc2n(Cc3ccccc3)c3cc(C)ccc3n2c1=O [C-73]
29 | 0.0225 ± 0.0024 µM |  | 0.00042 ± 5.4e-05 µM |  | CCc1c(C(C)C)[nH]c2nc3cc(F)c(F)cc3n2c1=O [B-40]
30 | 0.214 ± 0.032 µM |  | > 100 µM | 89% | CCCc1[nH]c2nc3ccccc3n2c(=O)c1CCC [B-45]
31 | 0.018 ± 0.0044 µM |  | 0.00126 ± 0.00029 µM |  | CCc1c(C(C)C)[nH]c2nc3cc(F)ccc3n2c1=O [C-74]
32 | > 10 µM | 34% |  |  | CCc1c(-c2cccs2)[nH]c2nc3ccccc3n2c1=O [C-80]
33 | > 10 µM | 39% |  |  | CCc1c(C(C)C)nc2n(Cc3ccccc3)c3ccc(C)cc3n2c1=O [C-72]
34 | > 100 µM | 13% |  |  | Cc1cc(=O)n2c(n1)oc1ccccc12 [B-59, 2-Methyl-4H-benzo[4,5]oxazolo[3,2-a]pyrimidin-4-one]
35 | 0.512 ± 0.107 µM |  | > 100 µM | 68% | CCCc1c(C(C)C)[nH]c2nc3ccccc3n2c1=O [B-42]
36 | 0.148 ± 0.042 µM |  | 0.00394 ± 0.00167 µM |  | CC(C)c1cc(=S)n2c(nc3ccccc32)[nH]1 [B-56]
37 | > 100 µM | 15% | 0.054 ± 0.0192 µM |  | CCc1c(C(C)C)[nH]c2nc3c(C)cccc3n2c1=O [B-38]
38 | > 100 µM | 4% |  |  | NC1=NC=NC2Nc3ccccc3N12 (stereo not drawn) [B-66]
39 | 0.349 ± 0.065 µM |  |  |  | CCc1c(C(C)(C)C)[nH]c2nc3ccccc3n2c1=O [C-76]
40 | > 10 µM | 2% |  |  | CSc1cc(C(C)C)nc2nc3ccccc3n12 [B-61]
41 | 0.0877 ± 0.0368 µM |  | 0.0184 ± 0.0054 µM |  | CCc1c(C(C)C)[nH]c2nc3cc(C)c(C)cc3n2c1=O [B-39]
42 | > 100 µM | 18% |  |  | Cc1cc(=O)n2c(nc3cc4ccccc4cc32)[nH]1 [B-62]

Row | IC50 (human MrgX4 L83S) | % inhibition ± SEM (human MrgX4 L83S) | IC50 (human wildtype MrgX2) | % inhibition ± SEM (human wildtype MrgX2) | Compound
43 | > 100 µM | 14% |  |  | 2-Methyl-4H-benzo[4,5]thiazolo[3,2-a]pyrimidin-4-one [B-60]
44 | > 100 µM | 0% |  |  | O=c1ccn2c(n1)[nH]c1ccccc12 [B-64, Benzo[4,5]imidazo[1,2-a]pyrimidin-2(10H)-one]
45 | 0.147 ± 0.015 µM |  | 0.000352 ± 7e-05 µM |  | CCc1c(C(C)C)[nH]c2nc3ccc(C)cc3n2c1=O [C-70]
46 | > 100 µM | −44% |  |  | O=c1ccsc2nc3ccccc3n12 [B-58, 4H-benzo[4,5]imidazo[2,1-b][1,3]thiazin-4-one]
47 | 8.04 ± 1.63 µM |  |  |  | Cc1[nH]c2nc3ccccc3n2c(=O)c1CCCl [C-67]
48 | 0.278 ± 0.042 µM |  |  |  | CCCc1[nH]c2nc3ccccc3n2c(=O)c1CC [B-43]
49 | > 100 µM | −4% |  |  | Cc1cc(=S)n2c(nc3ccccc32)[nH]1 [B-57]
50 | > 100 µM | 9% |  |  | Cc1[nH]c2nc3ccccc3n2c(=O)c1CCN=[N+]=[N-] [C-69]
51 | > 100 µM | 24% |  |  | Cc1cc(=O)n2c(n1)[nH]c1ccccc12 [B-33]
52 | > 100 µM | 48% |  |  | COC(=O)c1cc(=O)[nH]c2nc3ccccc3n12 [B-65]
53 | > 100 µM | 40% |  |  | CCc1c(C)nc2[nH]ccn2c1=O [B-31]
54 | > 100 µM | 6% |  |  | CC(C)c1cc(=O)n2c(nc3cc4ccccc4cc32)[nH]1 [B-63]
55 | > 100 µM | 45% |  |  | O=C(O)c1cnc2[nH]c3ccccc3n2c1=O [B-32]
56 | 1.18 ± 0.33 µM |  |  |  | CCc1c(C2CC2)[nH]c2nc3ccccc3n2c1=O [C-77]
57 | 0.223 ± 0.019 µM |  |  |  | CCc1c(C(C)C)[nH]c2nc3ccc(Cl)cc3n2c1=O [C-85]
58 | > 100 µM | 8% |  |  | CNCCc1c(C)[nH]c2nc3ccccc3n2c1=O [C-68]
59 | > 10 µM | 20% |  |  | COCCc1c(C)[nH]c2nc3ccccc3n2c1=O [B-35]
60 | 0.25 ± 0.061 µM |  |  |  | CCc1c(-c2ccc(OC)cc2)[nH]c2nc3ccccc3n2c1=O [B-46]
